The text below walks through data of PubChem BioAssay AID2742 (NMMLSC, 2010).

The test concerns S. cerevisiae MEP2-GFP strain, flow cytometry fluorescence, 3 h. Description: modulators of MEP2-GFP levels in yeast, dose response, S. cerevisiae, flow cytometry GFP, MLPCN hits (AID 2742).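 Also: curve fit on GFP signal minus compound signal in parental s288c strain lacking GFP.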

Turning to `CCCCCCCCn1sccc1=O`, the EC50 was 1.23 µM.
As for `O=C1NC(=O)N(Cc2ccc(F)cc2)C(=O)/C1=C/c1cccs1`, the EC50 is 3.01 µM.
In the case of `CNC(CC(=O)c1ccc([N+](=O)[O-])cc1)C(Cl)(Cl)Cl` (centres undefined) it was 2.28 µM; in that of `Nc1ccc(Br)c2c1C(=O)c1ccccc1C2=O`, 1.04 µM.
